Experimental data as given in US9663457B2, “Carbamoyl hydrazine derivatives as formyl peptide modulators” (Allergan, Inc., priority 2014, dated 2017).

Target: T1, FPR2 (Homo sapiens, UniProt P25090)
T1 construct: expressed in transfected cells; host or cells: HEK-Gα16, CHO-Gα16 and HEK-Gqi5 cells stably expressing FPR2
T1 sequence (P25090 1-351): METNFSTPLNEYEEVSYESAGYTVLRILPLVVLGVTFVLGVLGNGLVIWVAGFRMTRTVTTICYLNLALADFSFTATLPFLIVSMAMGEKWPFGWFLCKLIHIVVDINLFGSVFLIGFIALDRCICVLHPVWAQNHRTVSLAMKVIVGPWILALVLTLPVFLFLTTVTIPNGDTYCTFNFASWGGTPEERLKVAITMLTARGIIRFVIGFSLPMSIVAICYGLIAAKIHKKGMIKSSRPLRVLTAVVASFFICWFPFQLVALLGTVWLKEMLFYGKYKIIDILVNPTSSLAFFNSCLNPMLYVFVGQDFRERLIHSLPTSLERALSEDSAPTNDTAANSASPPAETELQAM
Assay: FPR2 compound-induced calcium activity assay on FLIPR Tetra
Type: cell-based
Details: HEK-Gα16, CHO-Gα16 or HEK-Gqi5 cells stably expressing FPR2, tested at 0.61 to 10,000 nM; for Emax: read-out: % Efficacy
Description: Compounds of Formula I modulate FPR activity. […] HEK-Gα16 and CHO-Gα16 cells stably expressing FPR2 were cultured in (F12, 10% FBS, 1% PSA, 400 μg/ml geneticin and 50 μg/ml hygromycin) and HEK-Gqi5 cells stable expressing FPR2 were cultured in (DMEM high glucose, 10% FBS, 1% PSA, 400 μg/ml geneticin and 50 μg/ml hygromycin). In general, the day before the experiment, 18,000 cells/well were plated in a 384-well clear bottom poly-D-lysine coated plate. The following day, the screening compound-induced calcium activity was assayed on the FLIPR^Tetra. The drug plates were prepared in 384-well microplates using the EP3 and the MuItiPROBE robotic liquid handling systems. Compounds were tested at concentrations ranging from 0.61 to 10,000 nM. Results are expressed as EC50 (nM) and efficacy values.

Row | Structure (SMILES) | EC50 | Emax
1 | CCOC(=O)CC(=O)NNC(=O)Nc1ccc(Br)cc1 [Compound 1, Ethyl 3-{2[(4-bromophenyl)carbamoyl]hydrazinyl}-3-oxopropanoate] | 750 nM | 100%
2 | CCCN(NC(=O)Nc1ccc(C(F)(F)F)cc1)C(=O)CCC(=O)O [Compound 14, 4-oxo-4-(1-propyl-2-{[4-(trifluoromethyl)phenyl]carbamoyl}hydrazinyl)butanoic acid] | 28 nM | 97%
3 | CC(C)(CC(=O)NNC(=O)Nc1ccc(Br)cc1)C(=O)O [Compound 3, 4-{2-[(4-bromophenyl)carbamoyl]hydrazinyl}-2,2-dimethyl-4-oxobutanoic acid] | 602 nM | 86%
4 | CCC(CC)(CC(=O)NNC(=O)Nc1ccc(Br)cc1)C(=O)O [Compound 6, 4-{2-[(4-bromophenyl)carbamoyl]hydrazinyl}-2,2-diethyl-4-oxobutanoic acid] | 421 nM | 73%
5 | CCCN(NC(=O)Nc1ccc(Br)cc1F)C(=O)CCC(=O)O [Compound 17, 4-{2-[(4-bromo-2-fluorophenyl)carbamoyl]-1-propylhydrazinyl}-4-oxobutanoic acid] | 29 nM | 100%
6 | CCOC(=O)CCC(=O)N(CC(C)C)NC(=O)Nc1ccc(Br)cc1F [Compound 9, ethyl 4-{2-[(4-bromo-2-fluorophenyl)carbamoyl]-1-(2-methylpropyl)hydrazinyl}-4-oxobutanoate] | 3660 nM | 76%
7 | CCCC(CCC)(CC(=O)NNC(=O)Nc1ccc(Br)cc1)C(=O)OC [Compound 4, methyl 2-(2-{2-[(4-bromophenyl)carbamoyl]hydrazinyl}-2-oxoethyl)-2-propylpentanoate] | 46 nM | 89%
8 | CCCN(NC(=O)Nc1ccc(C(F)(F)F)cc1)C(=O)CCC(=O)OCC [Compound 13, ethyl 4-oxo-4-(1-propyl-2-{[4-(trifluoromethyl)phenyl]carbamoyl}hydrazinyl)butanoate] | 35 nM | 98%
9 | CC(C)CN(NC(=O)Nc1ccc(Br)cc1F)C(=O)CCC(=O)O [Compound 10, 4-{2-[(4-bromo-2-fluorophenyl)carbamoyl]-1-(2-methylpropyl)hydrazinyl}-4-oxobutanoic acid] | 339 nM | 99%
10 | CCOC(=O)CCC(=O)N(CC(C)C)NC(=O)Nc1ccc(C(F)(F)F)cc1 [Compound 11, ethyl 4-[1-(2-methylpropyl) 2{[4-(trifluoromethyl)phenyl]carbamoyl}hydrazinyl]-4-oxobutanoate] | 57 nM | 94%
11 | CC(C)CN(NC(=O)Nc1ccc(Br)cc1)C(=O)CCC(=O)O [Compound 8, 4-{2-[(4-Bromophenyl)carbamoyl]-1-(2-methylpropyl)hydrazinyl}-4-oxobutanoic Acid] | 12 nM | 100%
12 | CC(C)(C(=O)O)C(=O)NNC(=O)Nc1ccc(Br)cc1 [Compound 2, 3-{2-[(4-Bromophenyl)carbamoyl]hydrazinyl}-2,2-dimethyl-3-oxopropanoic Acid] | 5210 nM | 73%
13 | CCCC(CCC)(CC(=O)NNC(=O)Nc1ccc(Br)cc1)C(=O)O [Compound 5, 2-[2-(2-{[(4-Bromophenyl)amino]carbonyl}hydrazino)-2-oxoethyl]-2-propylpentanoic Acid] | 215 nM | 87%
14 | CCOC(=O)CCC(=O)N(CC(C)C)NC(=O)Nc1ccc(Br)cc1 [Compound 7, Ethyl 4-{2-[(4-Bromophenyl)carbamoyl]-1-(2-methylpropyl)hydrazinyl}-4-oxobutanoate] | 31 nM | 100%
15 | CCCCN(NC(=O)Nc1ccc(Br)cc1)C(=O)CCC(=O)OCC [Compound 15, ethyl 4-{2-[(4-bromophenyl)carbamoyl]-1-butylhydrazinyl}-4-oxobutanoate] | 34 nM | 100%
16 | CC(C)CN(NC(=O)Nc1ccc(C(F)(F)F)cc1)C(=O)CCC(=O)O [Compound 12, 4-[1-(2-methylpropyl)-2-{[4-(trifluoromethyl)phenyl]carbamoyl}hydrazinyl]-4-oxobutanoic acid] | 21 nM | 98%
17 | CCCN(NC(=O)Nc1ccc(Br)cc1F)C(=O)CCC(=O)OCC [Compound 16, ethyl 4-{2-[(4-bromo-2-fluorophenyl)carbamoyl]-1-propylhydrazinyl}-4-oxobutanoate] | 34 nM | 100%
